Test results published in PubChem BioAssay (NCI).
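How tested: cells in 96-well plates exposed to compound for 48 hours at five concentrations. Here, GI50 denotes the concentration required for 50% inhibition of growth. The concentration for full growth arrest is given as TGI.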

What was measured:
Experiment in all cases: inhibition of tumour cell growth, NCI panel, 48 h
[1] = tested on: CCRF-CEM leukemia
[2] = tested on: K-562 leukemia
[3] = tested on: OVCAR-8 ovarian
[4] = tested on: SK-MEL-5 melanoma
[5] = tested on: HCT-15 colon
[6] = tested on: PC-3 prostate
[7] = tested on: MDA-MB-231 breast
[8] = tested on: T-47D breast
[9] = tested on: MDA-MB-435
[10] = tested on: HCT-116 colon
[11] = tested on: SK-MEL-2 melanoma
[12] = tested on: EKVX NSCLC
[13] = tested on: MCF7 breast
[14] = tested on: SK-MEL-28 melanoma
[15] = tested on: HCC-2998 colon
[16] = tested on: UACC-62 melanoma
[17] = tested on: SK-OV-3 ovarian
[18] = tested on: NCI-H226 lung
[19] = tested on: A498 renal
[20] = tested on: IGROV1 ovarian
[21] = tested on: SNB-75 CNS
[22] = tested on: NCI-H522 lung
[23] = tested on: DU-145 prostate
[24] = tested on: BT-549 breast
[25] = tested on: ACHN renal
[26] = tested on: OVCAR-5 ovarian
[27] = tested on: SF-539 CNS
[28] = tested on: SF-268 CNS
[29] = tested on: MDA-MB-468 breast
[30] = tested on: HOP-92 NSCLC
[31] = tested on: CAKI-1 renal
[32] = tested on: KM12 colon
[33] = tested on: HOP-62 NSCLC
[34] = tested on: UO-31 renal
[35] = tested on: RPMI-8226 leukemia
[36] = tested on: OVCAR-4 ovarian
[37] = tested on: HL-60(TB) leukemia
[38] = tested on: SR leukemia
[39] = tested on: SF-295 CNS
[40] = tested on: MALME-3M melanoma
[41] = tested on: SN12C renal
[42] = tested on: NCI-H23 lung
[43] = tested on: UACC-257 melanoma
[44] = tested on: NCI/ADR-RES ovarian
[45] = tested on: HS 578T breast
[46] = tested on: RXF 393 renal
[47] = tested on: SNB-19 CNS
[48] = tested on: MOLT-4 leukemia
[49] = tested on: M14 melanoma
[50] = tested on: COLO 205 colon
[51] = tested on: A549 NSCLC
[52] = tested on: HT29 colon
[53] = tested on: LOX IMVI melanoma
[54] = tested on: U251 CNS
[55] = tested on: OVCAR-3 ovarian
[56] = tested on: TK-10 renal
[57] = tested on: 786-0 renal
[58] = tested on: NCI-H460 lung
[59] = tested on: SW-620 colon

With `COc1cnc2c(c1)C(=O)c1c-2n(CCCNC(C)C)c(=O)c2cc(OC)c(OC)cc12` the GI50 [1] was 0.256 µM, the TGI [1] was 89.9 µM and the GI50 [2] was 0.496 µM. It also gave a TGI [2] of 22.5 µM, a GI50 [3] of 6.05 µM and a TGI [3] of 22.1 µM. The GI50 [4] was 1.7 µM, the TGI [4] was 11.9 µM and the GI50 [5] was 1.86 µM. The TGI [5] was 16.3 µM, the GI50 [6] was 6.53 µM and the TGI [6] was 30.5 µM. The GI50 [7] was 3.35 µM, the TGI [7] was 17.9 µM and the GI50 [8] was 4.97 µM. It also gave a TGI [8] of 22.2 µM, a GI50 [9] of 6.52 µM and a TGI [9] of 20.3 µM. For the same compound, the GI50 [10] was 1.02 µM, the TGI [10] was 12.8 µM and the GI50 [11] was 18.5 µM. For the same compound, the TGI [11] was 37.8 µM, the GI50 [12] was 10.4 µM and the TGI [12] was 22.4 µM. It also gave a GI50 [13] of 0.222 µM, a TGI [13] of 11.9 µM and a GI50 [14] of 16 µM. For the same compound, the TGI [14] was 29.7 µM, the GI50 [15] was 3.09 µM and the TGI [15] was 16.8 µM. The GI50 [16] was 2.43 µM, the TGI [16] was 16.1 µM and the GI50 [17] was 1.52 µM. The TGI [17] was 8.18 µM, the GI50 [18] was 2.55 µM and the TGI [18] was 16.6 µM. For the same compound, the GI50 [19] was 14.2 µM, the TGI [19] was 27.5 µM and the GI50 [20] was 10.8 µM. The TGI [20] was 23.3 µM, the GI50 [21] was 0.155 µM and the TGI [21] was 7.49 µM. For the same compound, the GI50 [22] was 0.536 µM, the TGI [22] was 12.6 µM and the GI50 [23] was 1.27 µM. It also gave a TGI [23] of 13.5 µM, a GI50 [24] of 4.26 µM and a TGI [24] of 20.6 µM. It also gave a GI50 [25] of 1.75 µM, a TGI [25] of 13.7 µM and a GI50 [26] of 12.3 µM. It also gave a TGI [26] of 25.5 µM, a GI50 [27] of 1.36 µM and a TGI [27] of 3.76 µM. The GI50 [28] was 1.31 µM, the TGI [28] was 19.1 µM and the GI50 [29] was 0.68 µM. The TGI [29] was 7.75 µM, the GI50 [30] was 9.11 µM and the TGI [30] was 23.9 µM. The GI50 [31] was 2.17 µM, the TGI [31] was 15.7 µM and the GI50 [32] was 8.02 µM. For the same compound, the TGI [32] was 21.9 µM, the GI50 [33] was 0.702 µM and the TGI [33] was 7.94 µM. It also gave a GI50 [34] of 5.88 µM, a TGI [34] of 19.7 µM and a GI50 [35] of 1.39 µM. It also gave a TGI [35] of 14.9 µM, a GI50 [36] of 2.5 µM and a TGI [36] of 7.63 µM. It also gave a GI50 [37] of 3.54 µM, a TGI [37] of 17.2 µM and a GI50 [38] of 0.369 µM. For the same compound, the TGI [38] was 4.85 µM, the GI50 [39] was 0.29 µM and the TGI [39] was 12.6 µM. It also gave a GI50 [40] of 11.5 µM, a TGI [40] of 24 µM and a GI50 [41] of 4.19 µM. For the same compound, the TGI [41] was > 100 µM, the GI50 [42] was 0.977 µM and the TGI [42] was 11.3 µM. It also gave a GI50 [43] of 12 µM, a TGI [43] of 25.2 µM and a GI50 [44] of 1.73 µM. The TGI [44] was 14.6 µM, the GI50 [45] was 11.2 µM and the TGI [45] was 32.6 µM. It also gave a GI50 [46] of 1.35 µM, a TGI [46] of 5.71 µM and a GI50 [47] of 1.2 µM. The TGI [47] was 12.8 µM, the GI50 [48] was 0.107 µM and the TGI [48] was 5.59 µM. It also gave a GI50 [49] of 4.91 µM, a TGI [49] of 20 µM and a GI50 [50] of 5.74 µM. The TGI [50] was 22.6 µM, the GI50 [51] was 5.7 µM and the TGI [51] was 23.8 µM. It also gave a GI50 [52] of 1.43 µM, a TGI [52] of 10.1 µM and a GI50 [53] of 1.19 µM. It also gave a TGI [53] of 4.6 µM, a GI50 [54] of 0.667 µM and a TGI [54] of 17.2 µM. For the same compound, the GI50 [55] was 8.99 µM, the TGI [55] was 22.6 µM and the GI50 [56] was 14.2 µM. It also gave a TGI [56] of 28 µM, a GI50 [57] of 5.51 µM and a TGI [57] of 19.1 µM. For the same compound, the GI50 [58] was 0.3 µM, the TGI [58] was 11.9 µM and the GI50 [59] was 0.946 µM. It also gave a TGI [59] of 20.5 µM.
